Laboratory results: patent publication US12606795B2 (Thankcome Biological Science and Technology (SuZhou) Co., …, priority 2023, dated 2026)
Values after ≈ are worked out from the molar mass of the structure shown.

Tests used:
[1] = system: AKK PROBIO; assay: Drug sensitivity, agar dilution method (CLSI); format: cell-based, Akkermansia muciniphila; details: for MIC: Akkermansia muciniphila, read-out: Test strain AKK PROBIO MIC, agar dilution method; for Test strain AKK PROBIO Judgment result: judged by CLSI S/I/R criterion of Table 6
Procedure: Referring to the Clinical and Laboratory Standards Institute (CLSI) method [CLSI. Performance Standards for Antimicrobial Susceptibility Testing; 26th ed. CLSI supplement M100S.
The sensitivity of AKK PROBIO to ampicillin, ceftriaxone, cefotaxime, meropenem, tetracycline, moxifloxacin, and chloramphenicol was determined using an agar dilution method recommended by CLSI. The quality-control strain B. fragilis ATCC 25285 was determined using a micro broth dilution method recommended by CLSI.

[2] = system: Bacteroides fragilis ATCC 25285; assay: Drug sensitivity of quality-control strain, micro broth dilution method (CLSI); format: cell-based; details: ATCC25285
Procedure: Bacteroides fragilis ATCC 25285 was selected as a quality-control strain. The sensitivity of […] to ampicillin, ceftriaxone, cefotaxime, meropenem, tetracycline, moxifloxacin, and chloramphenicol was determined using an agar dilution method recommended by CLSI. The quality-control strain B. fragilis ATCC 25285 was determined using a micro broth dilution method recommended by CLSI.

[3] = system: gouty arthritis mouse model; assay: Gouty arthritis mouse model (sodium urate); format: in vivo, BALB/c mice; details: glucosamine sulfate 195 mg/kg. bw intragastric
Procedure: Mice were randomly divided into 5 groups: a normal group, a model group, a glucosamine sulfate (positive control) group, an Akk low-concentration experimental (Akk-L) group, and an Akk high-concentration experimental (Akk-H) group, with 10 mice in each group. The mice in the normal group and the mice in the model group were intragastrically administered with distilled water at a dosage of 0.1 mL/10 g. bw per day. The mice in the glucosamine sulfate group were intragastrically administered with glucosamine sulfate at a dosage of 195 mg/kg. bw. The mice in the Akk-L group and the mice in the Akk-H group were intragastrically administered with Akk experimental bacteria at a dosage of 10^8 CFU/kg. bw and 10^9 CFU/kg. bw, respectively, for 7 consecutive days. Then, all experimental mice were anesthetized with isoflurane, and then 50 μL of PBS solution was injected into the tibiotarsal joint (ankle joint) of the right paw of the mouse in the normal group. 50 mg of sodium urate was added to 1 mL of PBS buffer to prepare a suspension. 50 μL of suspension was injected into the tibiotarsal joints (ankle joint) of the right paws of the rest of the mice except the mice in the […] to induce gouty arthritis. After the mice woke up, they were intragastrically administrated with a corresponding sample for 7 d still at the dosage of the sample intragastrically administrated in the previous 7 days.
0.1 g of mouse ankle joint tissue was weighed and added into […] containing 0.9 mL of saline and mixing was performed. Subsequently, mixed tissue samples were centrifuged at a speed of 4000 rpm for 10 min to obtain liquid supernatant. Next, related indicators in the liquid supernatant of a tissue homogenate was determined using assay kits for MPO, SOD, GSH, and MDA.
A taken-out whole blood sample of the mouse was centrifuged at 4° C. at 4000 rpm for 10 min to obtain supernatant serum. Serum-related inflammatory indicators were determined using the ELISA kit for IL-6, IL-10, IL-1β, and TNF-α.

[4] = system: AOM/DSS-induced colorectal carcinoma mice; assay: AOM/DSS-induced colorectal carcinoma mice; format: in vivo, C57BL/6 mice
Procedure: 6-week-old SPF male C57BL/6 mice, purchased from the Chongqing Lepitt Biotechnology Co., Ltd. The mice were raised in a standardized laboratory with room temperature of 25° C.±2° C., relative humidity of 50%±5%, and 12 h of light/12 h of darkness. […] In experiments, mice were given free feeding and water. On the first day of experimental molding, the mice in the model group, the aspirin group, and the AKKP group were injected intraperitoneally with AOM at a dosage of 10 mg/kg, and were fed with 2.5% DSS aqueous solution at weeks 2, 5, and 8. The mice in the normal group and model group were intragastrically administrated with sterile saline; the mice in the aspirin group were intragastrically administrated with an aspirin solution at 67 mg/kg, and the mice in the AKKPL group and the AKKPH group were intragastrically administrated at dosages of 1×10^8 CFU/kg and 1×10^9 CFU/kg, respectively, for 10 consecutive weeks. In the experiments, diet, activity, vigor and hair conditions, and fecal properties of the mice in each group were observed. Each mouse was weighed per week and the body weights were recorded. After the experiments, blood was collected from eyeballs and the mice were sacrificed by removing their vertebrae. The mice were dissected to take out large intestine tissue, spleen tissue, liver tissue, and the kidney tissue for later testing.
After the mice were dissected, the large intestine tissue, the spleen tissue, the liver tissue, and the kidney tissue were taken out and weighed. An organ Index was calculated using a formula, while the colorectum length of the mouse was measured and the colorectal tumorigenesis number of the mouse was recorded. Organ index=organ weight (mg)/mouse body weight (g).
After being fixed in a tissue fixative for 24 h, the rectum of the mouse was transferred into 95% ethanol for dehydration, and then the dehydrated rectum was placed in xylene to replace alcohol in the tissue to make the rectum tissue transparent. Then, the treated rectum was embedded with paraffin. The embedded rectum was sectioned by a microtome, and then a tissue section was stained with H&E and fixed, obtaining a pathologic tissue section, with a thickness of 2 to 3 μm, of the rectum of the mouse, and the pathologic tissue section was observed under the upright microscope.
Whole blood was collected from the eyeballs, and centrifuged at 4000 r/min and 4° C. for 10 min to separate supernatant serum. According to the instruction of the ELISA kit, the levels of IL-1β, IL-6, IFN-γ, iNOS and NF-κB in the serum of the mouse were determined.
About 50 mg colon tissue was taken and cleaned with saline, and the cleaned colon tissue was placed in a homogenization tube containing 6 zirconia beads, and 500 μL TRIzol™ reagent was added to extract RNA in the tissue. The purity and concentration of RNA were determined using the micro-spectrophotometer. […] Then, after cDNA was generated by reverse transcription, a reaction system containing 1 μL cDNA was prepared. Other reagents include 10 μL qPCR SYBR Green Master Mix, […] sterile distilled water, 1 μL forward primer and 1 μL reverse primer. qRT-PCR amplification reaction conditions: 95° C., 10 s, 60° C., 30 s, 40 cycles; 95° C., 15 s, 60° C., 60 s, 95° C., 15 s. Taking Eef2 as an internal reference gene, the mRNA relative expression of each target gene was calculated according to formula 2^−ΔΔCt.

[5] = qRT-PCR, aspirin 67 mg/kg or AKKPH 1×10^9 CFU/kg, vs model group, P<0.05
[6] = qRT-PCR, vs model group, P<0.05

CC1(C)S[C@@H]2[C@H](NC(=O)[C@H](N)c3ccccc3)C(=O)N2[C@H]1C(=O)O [Ampicillin, ampicillin] was tested, and the MIC [1] was less than 0.25 µg/mL, the “Test strain AKK PROBIO Judgment result” value [1] was “Sensitive” and the “Test strain AKK PROBIO Judgment result” value ([1]; listed as ampicillin) was “sensitive”. The MIC [2] was 64 µg/mL (≈ 183 µM).

With CO/N=C(\C(=O)N[C@@H]1C(=O)N2C(C(=O)O)=C(COC(C)=O)CS[C@H]12)c1csc(N)n1 [Cefotaxime, cefotaxime] the MIC [1] was 16 µg/mL (≈ 35.1 µM), the “Test strain AKK PROBIO Judgment result” value [1] was “Sensitive” and the “Test strain AKK PROBIO Judgment result” value ([1]; listed as cefotaxime) was “sensitive”. For the same compound, the MIC [2] was 32 µg/mL (≈ 70.3 µM).

With CO/N=C(\C(=O)N[C@@H]1C(=O)N2C(C(=O)O)=C(CSc3nc(=O)c(=O)[nH]n3C)CS[C@H]12)c1csc(N)n1 [Ceftriaxone, ceftriaxone] the MIC [1] was 8 µg/mL (≈ 14.4 µM), the “Test strain AKK PROBIO Judgment result” value [1] was “Sensitive” and the “Test strain AKK PROBIO Judgment result” value ([1]; listed as ceftriaxone) was “sensitive”. It also gave an MIC [2] of 128 µg/mL (≈ 231 µM).

In the case of O=C(N[C@H](CO)[C@H](O)c1ccc([N+](=O)[O-])cc1)C(Cl)Cl [Chloramphenicol, chloramphenicol], the MIC [1] is reported as 4 µg/mL (≈ 12.4 µM), the “Test strain AKK PROBIO Judgment result” value [1] is reported as “Sensitive” and the “Test strain AKK PROBIO Judgment result” value ([1]; listed as chloramphenicol) is reported as “sensitive”. The MIC [2] was 8 µg/mL (≈ 24.8 µM).

With N[C@H]1C(O)O[C@H](CO)[C@@H](O)[C@@H]1O.O=S(=O)(O)O (some centres unmarked) [Glucosamine sulfate, glucosamine sulfate, reference compound] the “SOD in mouse ankle joint tissue” value ([3]; model group 1.07, normal 6.07) was 2.50 ± 0.40 U/mg, the “MPO in mouse ankle joint tissue” value ([3]; model group 2.49, normal 0.38) was 1.82 ± 0.17 U/g and the “GSH in mouse ankle joint tissue” value ([3]; model group 18.06, normal 47.05) was 31.14 ± 1.66 mg/g. The “IL-1β in serum of mice” value ([3]; model group 24.97, normal 12.66) was 21.15 ± 1.22 ng/mL, the “MDA in mouse ankle joint tissue” value ([3]; model group 26.69, normal 5.74) was 20.31 ± 1.52 nmol/mg and the “IL-10 in serum of mice” value ([3]; model group 36.03, normal 27.20) was 32.84 ± 1.94 ng/mL. The “IL-6 in serum of mice” value ([3]; model group 90.05, normal 52.97) was 66.85 ± 4.90 ng/mL and the “TNF-α in serum of mice” value ([3]; model group 249.41, normal 117.58) was 204.43 ± 15.32 ng/mL.

With C[C@@H](O)[C@H]1C(=O)N2C(C(=O)O)=C(S[C@@H]3CN[C@H](C(=O)N(C)C)C3)[C@H](C)[C@H]12 [Meropenem, meropenem] the MIC [1] was 0.125 µg/mL (≈ 0.326 µM), the “Test strain AKK PROBIO Judgment result” value [1] was “Sensitive” and the “Test strain AKK PROBIO Judgment result” value ([1]; listed as meropenem) was “sensitive”. For the same compound, the MIC [2] was 0.25 µg/mL (≈ 0.652 µM).

Work on CN(C)[C@@H]1C(O)=C(C(N)=O)C(=O)[C@@]2(O)C(O)=C3C(=O)c4c(O)cccc4[C@@](C)(O)[C@H]3C[C@@H]12 [Tetracy cline, tetracycline] yielded an MIC [1] of 2 µg/mL (≈ 4.5 µM) and an MIC [2] of 0.5 µg/mL (≈ 1.13 µM).

In the case of CC(=O)Oc1ccccc1C(=O)O [aspirin, reference compound], the body weight loss ([4]; AOM/DSS mice, intragastric 10 weeks, aspirin 67 mg/kg, AKKP 1×10^8 and 1×10^9 CFU/kg) is reported as “alleviate the body weight loss in the mice to a certain extent”, the “content of IL-6 in serum” value ([4]; ELISA, vs model group) is reported as “reduced” and the “content of IFN-γ in serum” value ([4]; ELISA, vs model group, P<0.05) is reported as “reduced”. The “content of IL-1β in serum” value ([4]; ELISA, vs model group, P<0.05) was “lower than that in the model group”, the “content of NF-κB in serum” value ([4]; ELISA, vs model group, P<0.05) was “reduced” and the “content of iNOS in serum” value ([4]; ELISA, vs model group, P<0.05) was “reduced”. For the same compound, the “colorectum weight/length (ratio)” value ([4]; aspirin 67 mg/kg intragastric 10 weeks, model group 4.34±0.35, normal 2.81±0.34) was 3.17±0.50, the “pathological morphology of rectum tissue (H&E)” value ([4]; aspirin, AKKPL and AKKPH groups) was “no obvious erosion found in the rectal mucosa” and the “kidney index / renal tissue” value ([4]; between the five groups, P>0.05) was “no significant difference”. For the same compound, the “mRNA relative expression of IκBβ in colon tissue” value [4, 5] was “significantly reduced”, the “mRNA relative expression of p50 in colon tissue” value [4, 5] was “significantly reduced” and the “mRNA relative expression of Bid in colon tissue” value [4, 6] was “significantly increased”. The “mRNA relative expression of Bim in colon tissue” value [4, 6] was “significantly increased”, the “mRNA relative expression of caspase-9 in colon tissue” value [4, 6] was “significantly increased” and the “mRNA relative expression of p52 in colon tissue” value [4, 6] was “significantly reduced”. For the same compound, the “mRNA relative expression of p65 in colon tissue” value [4, 6] was “significantly reduced”, the colorectal tumorigenesis number ([4]; vs model group, P<0.05) was “significantly smaller” and the “liver weight (liver index)” value ([4]; vs model group, P<0.05) was “reduced”. The “spleen weight (spleen index)” value ([4]; vs model group, P<0.05) was “reduced” and the colorectum length ([4]; vs model group, P<0.05, aspirin 67 mg/kg, AKKP 1×10^8 and 1×10^9 CFU/kg, 10 weeks) was “relatively long”.
